Laboratory results published in patent US20080076751A1, “Azetidinone Derivatives and Methods of Use Thereof” (priority 2006, published 2008).

Target: T1, human NPC1L1 (Homo sapiens, UniProt Q9UHC9)
T1 construct: expressed in transfected cells; host or cells: HEK-293 (geneticin selection)
T1 sequence (Q9UHC9 22-1359): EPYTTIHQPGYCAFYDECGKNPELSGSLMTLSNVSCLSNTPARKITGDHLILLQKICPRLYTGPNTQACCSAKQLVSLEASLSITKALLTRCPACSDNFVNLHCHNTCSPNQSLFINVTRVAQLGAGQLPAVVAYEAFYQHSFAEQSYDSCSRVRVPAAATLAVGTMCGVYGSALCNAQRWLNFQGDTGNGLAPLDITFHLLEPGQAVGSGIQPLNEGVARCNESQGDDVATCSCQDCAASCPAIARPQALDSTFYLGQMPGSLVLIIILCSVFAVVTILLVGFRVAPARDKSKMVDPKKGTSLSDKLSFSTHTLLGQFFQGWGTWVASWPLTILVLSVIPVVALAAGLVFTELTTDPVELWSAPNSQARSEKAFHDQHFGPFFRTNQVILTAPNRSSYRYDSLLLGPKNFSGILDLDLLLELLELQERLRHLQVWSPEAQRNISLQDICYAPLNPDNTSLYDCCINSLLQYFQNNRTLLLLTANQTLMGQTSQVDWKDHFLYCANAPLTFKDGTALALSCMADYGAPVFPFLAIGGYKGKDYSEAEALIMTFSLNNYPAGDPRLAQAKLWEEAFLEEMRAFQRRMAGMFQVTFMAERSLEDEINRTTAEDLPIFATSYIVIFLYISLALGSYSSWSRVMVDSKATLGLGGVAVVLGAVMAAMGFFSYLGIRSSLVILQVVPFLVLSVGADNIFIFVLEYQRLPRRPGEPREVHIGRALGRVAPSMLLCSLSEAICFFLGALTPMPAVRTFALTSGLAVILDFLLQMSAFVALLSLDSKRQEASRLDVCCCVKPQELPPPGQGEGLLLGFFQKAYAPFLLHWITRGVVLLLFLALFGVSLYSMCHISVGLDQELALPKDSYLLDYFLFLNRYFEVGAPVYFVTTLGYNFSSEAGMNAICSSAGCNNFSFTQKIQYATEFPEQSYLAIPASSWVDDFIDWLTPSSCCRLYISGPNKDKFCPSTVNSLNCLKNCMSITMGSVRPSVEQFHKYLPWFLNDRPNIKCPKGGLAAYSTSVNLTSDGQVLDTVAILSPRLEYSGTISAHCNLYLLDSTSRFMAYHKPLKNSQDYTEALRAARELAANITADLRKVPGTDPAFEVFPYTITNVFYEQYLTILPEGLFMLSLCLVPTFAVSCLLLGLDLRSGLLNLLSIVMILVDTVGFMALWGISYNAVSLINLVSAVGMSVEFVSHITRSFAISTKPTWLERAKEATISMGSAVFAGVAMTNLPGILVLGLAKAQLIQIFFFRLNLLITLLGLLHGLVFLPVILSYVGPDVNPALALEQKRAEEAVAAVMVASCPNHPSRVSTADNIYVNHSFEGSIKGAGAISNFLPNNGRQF
Test: NPC1L1 binding assay (BODIPY-labeled glucuronidated ezetimibe competition), human
Settings: HEK-293 cells expressing human NPC1L1, 4 hours at 37° C.
Description: HEK-293 cells expressing human NPC1L1 were plated into 384-well black/clear plates (BD Biosciences, Bedford Mass.) for binding experiments the following day. Cell growth media (DMEM, 10% fetal calf serum, 1 mg/mL geneticin, 100 Units/mL penicillin) was aspirated. Cell growth media ([…]) containing 250 nM BODIPY-labeled glucuronidated ezetimibe was added to each well. Cell growth media ([…]) containing the indicated concentration of compound was then added to the wells. Unlabeled glucuronidated ezetimibe ([…]) was used to determine nonspecific binding. The binding reaction was allowed to proceed for 4 hours at 37° C. Subsequently the cell growth media was aspirated and the cells washed once with PBS. The remaining fluorescent labeled glucuronidated ezetimibe bound to the cells was quantified using a FlexStation plate reader (Molecular Devices, Sunnyvale Calif.) to measure fluorescence intensity. Ki values were determined from competition binding curves (n=4 for each point) using Prism and Activity Base software.

Ki | Compound
31.2 µM | O=C(NC1CCCC1)N1CCC2(CC1)C(=O)N(c1ccccc1)C2c1ccccc1 (stereo not drawn)
26 µM | O=C(NCc1cccc(F)c1)N1CCC2(CC1)C(=O)N(c1ccccc1)C2c1ccccc1 (stereo not drawn)
8.64 µM | O=C(Nc1ccccc1Cl)N1CCC2(CC1)C(=O)N(c1ccccc1)C2c1ccccc1 (stereo not drawn)
17.6 µM | O=C(NCc1ccccc1Cl)N1CCC2(CC1)C(=O)N(c1ccccc1)C2c1ccccc1 (stereo not drawn)
19.7 µM | O=C(NC1CCCCC1)N1CCC2(CC1)C(=O)N(c1ccccc1)C2c1ccccc1 (stereo not drawn)

Target: T2, human-SP9215 (GPR119) (Homo sapiens, UniProt Q8TDV5)
T2 construct: expressed in transfected cells
T2 sequence (Q8TDV5 1-335): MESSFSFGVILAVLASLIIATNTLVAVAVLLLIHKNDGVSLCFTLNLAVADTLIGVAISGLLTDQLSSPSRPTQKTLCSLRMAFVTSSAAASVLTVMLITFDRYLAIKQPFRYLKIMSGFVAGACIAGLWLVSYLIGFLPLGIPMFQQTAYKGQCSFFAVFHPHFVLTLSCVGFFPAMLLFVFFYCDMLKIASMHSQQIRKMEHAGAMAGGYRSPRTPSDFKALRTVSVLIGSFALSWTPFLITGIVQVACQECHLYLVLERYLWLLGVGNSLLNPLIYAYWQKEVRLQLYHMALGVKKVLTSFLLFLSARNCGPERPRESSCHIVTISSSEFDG
Test: GPR119 screening assay (LANCE cAMP, HEK 293 Human clone 3)
Format: cell-based
Settings: HEK 293 Human clone 3, LANCE cAMP; read-out: GPR119 cAMP IC5O
Description: • +100 mg BSA (MP Biomedicals faction V, #103703)=0.1% • +500 μL 1M HEPES (Cellgro #25-060-Cl)=5 mM • +75 μL RO-20 (Sigma B8279; 20 mM stock in DMSO stored in aliquots at −20° C.)=15 μM • (made fresh daily) B84 (N-[4-(methylsulfonyl)phenyl]-5-nitro-6-[4-(phenylthio)-1-piperidinyl]-4-pyrimidinamine, see WO 2004/065380): A 10 mM stock solution of the test compound in DMSO was prepared, aliquoted and stored at −20° C. For Totals—Dilute 1:33.3 in DMSO then 1:50 in Stimulation Buffer=6 μM in 2% DMSO (=3 μM B84 and 1% DMSO final). For Dose Response Curve -3 μL stock+7 μL DMSO+490 μL Stim Buffer=60 μM in 2% DMSO (=30 μM B84 and 1% DMSO final). (made fresh daily). Cell Line Human clone 3: HEK 293 cells stable transfected with human-SP9215 (GPR119)/pcDNA3.1 and also stable for pCRELuc, Stratagene. Cells are maintained in DMEM containing 10% FBS (Invitrogen #02-4006Dk, lot #1272302, heat inactivated), 1×MEM, 1× Pen/Strep, 0.1 mg/mL Hygromycin B, and 0.5 mg/mL G418. Cells are split 1:8 twice per week. cAMP Kit: LANCE™ cAMP 384 kit, Perkin Elmer #AD0263 Compound Dilutions • 1. Add DMSO to vials containing compounds to provide a 1 mg/mL solution. • 2. Dilute compounds to 60 μM in Stimulation buffer. Make ½ log dilutions into stimulation buffer containing 2% DMSO using the epMotion robot. 10 point dose response curve 1 nM to 30 μM. • 3. Compounds are run in quadruplicate, 2 separate dilutions for each, sets 1 and 1a. Assay Procedure • 1. The afternoon before the assay, replace the media in the flask of Human clone 3 cells with Optimem. (Gibco # 11058-021) NOTE: cells should be in culture 6-8 days. • 2. Next morning, pipet the cells gently off the flask using HBSS (at room temperature). • 3. Pellet the cells (1300 rpm, 7 minutes, room temperature) and resuspend in Stimulation Buffer at 2.5×10e6/mL (=5-8,000 cell/6 μL). Add 1:100 dilution of Alexa Fluor 647-anti cAMP antibody (provided in the kit) directly to the cell suspension. • 4. Into white 384-well plates (Matrix) add 6 μL of 2×B84, cmpds or stim buffer for nsb. They all contain 2% DMSO (=1% DMSO final). • Add 6 μL of the cell suspension to the wells. Incubate 30 minutes at room temperature. • For the std curve add 6 μL cAMP std solution diluted in Stim Buffer+2% DMSO according to kit directions (1000-3 nM). Add 6 μL of 1:100 anti-cAMP dilution in Stim Buffer to std wells. • Make Detection Mix according to kit instructions and incubate 15 minutes at room temperature. • Add 12 μL Detection Mix to all the wells.

Compound | IC50
COC(=O)c1ccc(N2C(=O)C3(CCN(C(=O)c4ccc5c(c4)OCCCO5)CC3)C2c2ccc(Cl)cc2)cc1 (stereo not drawn) | 1 µM
N#Cc1ccc(N2C(=O)C3(CCN(C(=O)c4ccc5c(c4)OCCCO5)CC3)C2c2ccc(Cl)cc2)cc1 (stereo not drawn) | 2.28 µM
COC(=O)c1ccc(N2C(=O)C3(CCN(C(=O)c4cc(OC)c(OC)c(OC)c4)CC3)C2c2ccc(Cl)cc2)cc1 (stereo not drawn) | 2.72 µM
COc1cccc(N2C(=O)C3(CCN(C(=O)c4cc(OC)c(OC)c(OC)c4)CC3)C2c2ccc(Cl)cc2)c1 (stereo not drawn) | 3.8 µM
O=C(c1ccc2c(c1)OCCCO2)N1CCC2(CC1)C(=O)N(c1ccc([N+](=O)O)cc1)C2c1ccc(Cl)cc1 (stereo not drawn) | 4.18 µM
COc1cc(C(=O)N2CCC3(CC2)C(=O)N(c2cccc(C(F)(F)F)c2)C3c2ccc(Cl)cc2)cc(OC)c1OC (stereo not drawn) | 4.4 µM
O=C(c1ccc2c(c1)OCCCO2)N1CCC2(CC1)C(=O)N(c1ccc(C(F)(F)F)cc1)C2c1ccc(Cl)cc1 (stereo not drawn) | 4.46 µM

Continued, values first:

IC50 | Compound
2 µM | CC(C)OC(=O)N1CCC2(CC1)C(=O)N(C(c1ccccc1)c1ccccc1)C2c1ccccc1 (stereo not drawn)
4.36 µM | COc1cc(C(=O)N2CCC3(CC2)C(=O)N(c2ccc(F)cc2)C3c2ccc(Cl)cc2)cc(OC)c1OC (stereo not drawn)
4.68 µM | C[C@H](NC(=O)N1CCC2(CC1)C(=O)N(c1ccc(F)cc1)C2c1ccc(F)cc1)c1ccccc1 (stereo partly drawn)
